Tests used:
survivin [1] = assay: Immunohistochemical staining of survivin in MDA tumor xenografts; type: in vivo, athymic nude mice; details: doxorubicin 4 mg/kg every four weeks; versus untreated group
Description: (§1) Human tumor xenografts in athymic nude mice. […] The animal protocol was approved by the Howard University Animal Care and Use Committee. Four-week-old female athymic nude mice (Nu/Nu) were obtained from Harlan Sprague Dawley (Indianapolis, IN). All mice were provided the Harlan Teklad #2018 Global 18% protein rodent diet and water ad libitum. Mice were housed in temperature-controlled rooms (74±2° F.) with a 12-hour alternating light-dark cycle. MDA cells (3×10^6/50 μL/spot) were subcutaneously injected into the both sides of lower back of mice using a 27-gauge needle. […]
(§2) Immunohistochemical staining was performed as described previously (Hao Y, et al., “Enforced expression of miR-101 inhibits prostate cancer cell growth by modulating the COX-2 pathway in vivo,” Cancer Prev Res (Phila), 2011; 4: 1073-1083). […] For the quantification, ten high-magnification (40×) fields were randomly selected from each slide of tumors and the positive cells were counted. The protein expression was expressed as the average number of positive cells per high magnification field.

[2] = tested on: proliferating cell nuclear antigen (PCNA); assay: Immunohistochemical staining of PCNA in MDA tumor xenografts; type: in vivo, athymic nude mice; details: doxorubicin 4 mg/kg every four weeks; versus untreated; P<0.05
Description: as §1, §2

MDA tumor xenografts [3] = assay: Human tumor xenografts in athymic nude mice, tumor weight; type: in vivo; details: doxorubicin 4 mg/kg every four weeks, intraperitoneal; day 37; mean±SD; untreated control 0.81±0.12 g
Description: Human tumor xenografts in athymic nude mice. […] The animal protocol was approved by the Howard University Animal Care and Use Committee. Four-week-old female athymic nude mice (Nu/Nu) were obtained from Harlan Sprague Dawley (Indianapolis, IN). All mice were provided the Harlan Teklad #2018 Global 18% protein rodent diet and water ad libitum. Mice were housed in temperature-controlled rooms (74±2° F.) with a 12-hour alternating light-dark cycle. MDA cells (3×10^6/50 μL/spot) were subcutaneously injected into the both sides of lower back of mice using a 27-gauge needle. On day 10 after cell implantation, the mice with tumors (˜5 mm in diameter) were randomly divided into Sal-B treated, doxorubicin treated, and untreated groups (five mice per group), and were administrated Sal-B (80 mg/kg, three times per week), doxorubicin (4 mg/kg, every four weeks) and 0.9% saline (50 μl, three times per week), respectively, by intraperitoneal injection for a total of 37 days. […] All mice were sacrificed on day 37.

Bcl-xL [4] = assay: Western blot of Bcl-xL expression in MDA and MCF-7 cells; type: cell-based, human; details: doxorubicin 0.1 μM and 1 μM, 24 hours
Description: (§3) The immunohistochemical results were consistent with those from Western blotting (FIG. 7, panel A). Western blot analysis was used to determine the expression of apoptosis-related proteins Bcl-XL, survivin, caspase-3 and caspase-8 (FIG. 7, panel A). β-actin was used as an internal control for Western blotting. The MCD-7 and MDA cells were treated with Sal-B (50 μM and 100 μM) and doxorubicin (0.1 μM and 1 μM), respectively, for 24 hours. Proteins were extracted from the cells with RIPA lysis buffer (Santa Cruz Biotechnology, Santa Cruz, CA) and the protein concentrations were quantified with Bio-Rad protein quantification kit. Whole-cell proteins were separated on 8% SDS-polyacrylamide gel, transferred to the polyvinylidene difluoride membrane (Bio-Rad), and then probed with the indicated primary antibodies overnight at 4° C. Washed blots were then incubated with horseradish peroxidase-conjugated anti-rabbit, anti-mouse, or anti-goat antibody (Santa Cruz Biotechnology), respectively, for one hour at room temperature. Blots were developed and visualized with ECL detection system (Bio-Rad).

cyclin B1 = assay: Western blot of cyclin B1 expression in MDA and MCF-7 cells; type: cell-based, human; details: doxorubicin 1 μM, 24 hours
Description: (§4) The expression of two cell cycle-related proteins—cyclin A and cyclin B1—was checked by Western blot. The expression of cyclin A and cyclin B1 was normalized by the expression of the internal control β-actin (lower panel). The cells were treated with 50 μM and 100 μM Sal-B, respectively, for 24 hours. Doxorubicin (0.1 μM and 1 μM) was used as a control. […] The results may be explained by that the cell cycle progression is controlled by a large set of molecules, although cyclin B1 is a key component in the control of cell cycle progression from G2 to M phase.
as §3

MDA-MB-231 cells = assay: Luciferase assay (bioluminescent cell viability); type: cell-based, human; details: MDA cells, 24 hours
Description: (§5) Cell lines and culture. MCF-7 and MDA human breast cancer cell lines stably transfected with firefly luciferase gene were purchased from Caliper Life Sciences (Hanover, MD). MCF-7 cells were cultured in DMEM medium (Invitrogen, Carlsbad, CA) and MDA cells were grown in DMEM/F-12 (1:1) medium (Invitrogen). Both media were supplemented with 10% fetal bovine serum (Invitrogen) and antibiotic-antimycotic mixture (100 IU/ml penicillin and 100 μg/ml streptomycin; Cellgro). The cells were maintained at 37° C. in 5% CO2. All experiments were performed when the cells were in the logarithmic phase of growth. Luciferase assay. The MDA cell line and the hormone receptor-positive MCF-7 cell line were utilized to test the effectiveness of Sal-B and doxorubicin on cancer cell viability. Both cell lines had been stably transfected and expressed the firefly luciferase gene. The bioluminescent signal intensity reflects the cell metabolic activity, being highly correlated with the cell viability. Cell viability was evaluated using the sensitive bioluminescent optical imaging. The cells (10,000 per well) were seeded in flat-bottomed 96-well plates in the above-identified medium with 10% fetal bovine serum and allowed to grow overnight. The old medium was then replaced with fresh medium containing different concentrations of Sal-B (50, 100, 150, and 200 μM) or doxorubicin (0.1, 0.2, 0.5, and 1 μM). The cells were further cultured for 24 hours and D-luciferin was added to each well and mixed gently (final concentration of 150 μ/ml). The signal was measured with the Xenogen IVIS 200 imaging system (Caliper Life Sciences, Hopkinton, MA, USA). The system was equipped with a highly sensitive, cooled charge-coupled device (CCD) camera and a light-tight specimen box. Imaging and quantification of signals was controlled by the acquisition and analysis software Living Image 3.0. The bioluminescent signal from the cells in each well was expressed as total flux (photons per second (p/s)). At least five replicates were performed in each experiment, and each experiment was repeated at least three times. The representative data are presented.

MCF-7 cells = assay: Luciferase assay (bioluminescent cell viability); type: cell-based, human; details: 24 hours
Description: as §5

cyclin A = assay: Western blot of cyclin A expression in MDA and MCF-7 cells; type: cell-based, human; details: doxorubicin 1 μM, 24 hours
Description: as §4
as §3, with “Washed blots were then incubated with horseradish peroxidase-conjugated anti-rabbit, anti-mouse, or anti-goat antibody (Santa Cruz Biotechnology), respectively, for one hour at room temperature. Blots were developed and visualized with ECL detection system (Bio-Rad).” left out

MDA tumor xenografts [5] = assay: TUNEL assay of apoptotic cells in MDA tumor xenografts; type: in vivo, athymic nude mice; details: doxorubicin 4 mg/kg every four weeks; untreated tumors 3.1±1.8; P<0.05
Description: as §1
Apoptotic cells in MDA tumor xenografts were also analyzed by a terminal deoxynucleotidyl transferase-mediated dUTP nick end labeling (TUNEL) assay using the TdT-FragEL DNA Fragmentation Detection Kit (EMD Millipore, Burlington, MA) as previously described (Li H, et al., “Cellular uptake and anticancer activity of salvianolic acid B phospholipid complex loaded nanoparticles in head and neck cancer and precancer cells,” Colloids Surf B Biointerfaces. 2016; 147: 65-72). […]

survivin [6] = assay: Western blot of survivin expression in MDA and MCF-7 cells; type: cell-based, human; details: doxorubicin 0.1 μM and 1 μM, 24 hours
Description: as §3

ceramides = assay: Immunohistochemistry of ceramides in MDA tumor xenografts; type: in vivo, athymic nude mice; details: doxorubicin 4 mg/kg every four weeks; untreated control 2.3±0.7; P<0.05
Description: as §1
Immunohistochemical staining was performed as described previously (Hao Y, et al., “Enforced expression of miR-101 inhibits prostate cancer cell growth by modulating the COX-2 pathway in vivo,” Cancer Prev Res (Phila), 2011; 4: 1073-1083). […] For the quantification, ten high-magnification (40×) fields were randomly selected from each slide of tumors and the positive cells were counted. The protein expression was expressed as the average number of positive cells per high magnification field. […]

ER-α = assay: Western blot of ER-α expression in MCF-7 cells; type: cell-based, human; details: doxorubicin at the high dose (1 μM)
Bcl-xL [7] = assay: Immunohistochemical staining of Bcl-xL in MDA tumor xenografts; type: in vivo, athymic nude mice; details: doxorubicin 4 mg/kg every four weeks; versus untreated tumors; P<0.05
Description: as §1, §2

COc1cccc2c1C(=O)c1c(O)c3c(c(O)c1C2=O)C[C@@](O)(C(=O)CO)C[C@@H]3O[C@H]1C[C@H](N)[C@H](O)[C@H](C)O1 [doxorubicin, reference compound]
survivin level in tumors (survivin [1]): decreasing | PCNA levels in tumor xenografts [2]: higher in untreated MDA tumor xenografts | average tumor weight (MDA tumor xenografts [3]): 0.34 ± 0.09 g | Bcl-xL protein expression (Bcl-xL [4]; MCF-7 cells): downregulated | Bcl-xL protein expression (Bcl-xL [4]; MDA cells): downregulated | cyclin B1 expression (normalized to β-actin) (cyclin B1; MCF-7 cells): reduction | cyclin B1 expression (normalized to β-actin) (cyclin B1; MDA cells): reduction | cytotoxicity at 0.5 µM (MDA-MB-231 cells; Homo sapiens, MDA-MB-231, doxorubicin 0.5 μM, read-out: reduction of cell viability): 25% | further reduction of cell viability versus 0.5 μM (MDA-MB-231 cells; doxorubicin 1 μM): No further reduction | cytotoxicity at 0.5 µM (MCF-7 cells; Homo sapiens, MCF7, MCF-7 cells, doxorubicin 0.5 μM, read-out: reduction of cell viability): ~67% | further reduction of cell viability versus 0.5 μM (MCF-7 cells; MCF-7 cells, doxorubicin 1 μM): No further reduction | effect on cell viability, MCF-7 cells relative to MDA cells (MCF-7 cells; doxorubicin 1 μM): approximately two-fold | cyclin A expression (normalized to β-actin) (cyclin A; MCF-7 cells): reduction | cyclin A expression (normalized to β-actin) (cyclin A; MDA cells): reduction | number of apoptotic cells (TUNEL) (MDA tumor xenografts [5]): 9.0±2.1 | survivin protein expression (survivin [6]; MCF-7 cells): downregulated | survivin protein expression (survivin [6]; MDA cells): downregulated | ceramide levels in tumor xenografts (ceramide positive cells counted) (ceramides): 6.2±1.3 | ER-α protein level (normalized to β-actin) (ER-α): decreased | expression of Bcl-xL in tumors (Bcl-xL [7]): decreased expression

Source: patent publication US12383527B2, “Methods for treating triple negative breast cancer using salvianolic acid B” (HOWARD UNIVERSITY, priority 2018, dated 2025)
